In patent publication US11576914B2, “Drug for treating or preventing disorder caused by TGF-β signaling, and application thereof” (THE DOSHISHA, priority 2017, dated 2023):

Tests used:
[1] = system: cleaved caspase-3 and PARP; assay: Western blot of caspase 3 and PARP in iFECD stimulated with TGF-β2; format: cell-based, human; conditions: 0.1 μM
Procedure: The medium was removed from the culture dish of cultured disease model cells, and the disease model cells were supplemented with 1×PBS (−) that was preheated to 37° C., followed by washing. This operation was repeated twice. The cells were supplemented with 1×PBS (−) again and incubated for 5 minutes at 37° C. (5% CO2). After the PBS (−) was removed, the cells were supplemented with 0.05% Trypsin-EDTA (nacalai tesque, 32778-34) and incubated for 5 minutes at 37° C. (5% CO2). The cells were then suspended in a medium, and collected by centrifugation at 1500 rpm for 3 minutes. Medium: DMEM (nacalai tesque, 08456-36)+10% FBS (Biowest, S1820-500)+1% P/S (nacalai tesque, 26252-94).
The Fuchs' endothelial corneal dystrophy patient-derived immortalized corneal endothelial cells were seeded in a 6-well plate at a rate of 1.5×10^5 cells per well and cultured at 37° C. (5% CO2) for 48 hours. DMEM+10% FBS+1% P/S was used as the medium. After 48 hours, the medium was removed, and SB203580 (Cayman, 13067), PH-797804 (Selleck Chemicals, S2726), VX-702 (Selleck Chemicals, 56005) and AKP-001 were added to DMEM+2% FBS+1% P/S so that all the final concentration was 0.1 μM, followed by culturing as 24-hour pretreatment.
After 24 hours, the medium was removed, and SB203580 (Cayman, 13067), PH-797804 (Selleck Chemicals, S2726), VX-702 (Selleck Chemicals, 56005) and AKP-001, together with 100 ng/ml recombinant human TGF-β2 (R & D systems, RND302-B2-002), were added to DMEM+2% FBS+1% P/S so that all the final concentration was 0.1 μM, followed by culturing for 24 hours. After 24 hours, the protein was subjected to Western blotting according to the following procedure to evaluate the effect on apoptosis.
The medium was collected on ice to collect free and dead cells as well. The solution obtained from washing the cells twice with 1×PBS (−) was also collected, followed by centrifugation of 800 g at 4° C. for 5 minutes. The supernatant was discarded to obtain precipitates. The washed cells were supplemented with a protein extraction buffer (RIPA; 50 mM Tris-HCl (pH 7.4), 150 mM NaCl, 1 mM EDTA, 0.1% SDS, 0.5% DOC, 1% NP-40) on ice to extract proteins. The precipitates from centrifuging the free and dead cells were also subsequently suspended together for extraction. The collected solution was pulverized three times for 30 seconds in cold water with a sonication device (BIORUPTOR, TOSHO DENKI) and centrifuged for 10 min at 4° C. at 15000 rpm to collect the supernatant of proteins.
Eight μg of the extracted protein was separated by SDS-PAGE and transferred onto a nitrocellulose membrane. A rabbit anti-Caspase 3 antibody (Cell Signaling, 9662), rabbit anti-PARP antibody (Cell Signaling, 9542), and mouse anti-GAPDH antibody (MBL, M171-3) were used as the primary antibodies. A peroxidase-labeled anti-rabbit antibody and anti-mouse antibody (GE Healthcare Biosciences, NA931V, NA934V) were used as the secondary antibodies. For the primary antibodies, the rabbit anti-PARP antibody was diluted 1000-fold, the rabbit anti-Caspase 3 antibody was diluted 1000-fold, and the mouse anti-GAPDH antibody was diluted 3000-fold. Further, the secondary antibody was diluted 5000-fold. Chemi Lumi ONE Ultra (Nacalai Tesque, 11644-40) was used for detection. The detected band strength was analyzed with a lumino image analyzer LAS-4000 mini (Fuji Film) and ImageQuant™ software (GE Healthcare).

corneal endothelium = assay: Histological analysis of the corneal endothelium after instillation; format: in vivo
From the text: Rabbits were euthanized, and then their eyes were removed and histologically analyzed. Expression of markers related to corneal endothelial functions was confirmed by immunostaining. The sclerocornea fragments were fixed with 0.5% paraformaldehyde and then blocked with 1% bovine serum albumin. As primary antibodies, ZO-1 antibody (Life Technologies) and N-cadherin antibody (BD Biosciences), which are indicators of the barrier function of corneal endothelial cells, and Na^+/K^+-ATPase antibody (MILLIPORE), which is an indicator of pump functions, were added, followed by standing at 4° C. overnight. […] Further, nuclear staining was performed using DAPI (Dojindo). To observe the cell morphology, actin was stained using Phalloidin (Life Technologies). The stained sclerocornea fragments were mounted in slide glasses and observed using a confocal fluorescence microscope (TCS SPE, Leica).
In addition, rabbits were euthanized, and then their eyes were removed. To assess cell death, the sclerocornea fragments were stained with Annexin V (Zymed Laboratories) and PI (Zymed Laboratories), fixed with 0.5% paraformaldehyde, and nuclear stained with DAPI (Dojindo). The stained sclerocornea fragments were mounted in slide glass and observed using a confocal fluorescence microscope (TCS SPE, Leica). Staurosporine (10 μM, Merck Millipore) was administered into the anterior chamber of a rabbit eyeball, and after 24 hours, it was used as a positive control.

## O=C(Cc1c(F)cccc1Cl)Nc1onc(-c2ccc(F)cc2)c1-c1ccncn1 [AKP-001, 5-[(2-chloro-6-fluorophenyl)acetylamino]-3-(4-fluorophenyl)-4-(4-pyrimidinyl)isoxazole]
[1]; 100 ng/ml TGF-β2, 24 hours
  cleaved caspase-3 and PARP expression: hardly any
[1]; TGF-β2
  caspase activity: inhibited
Corneal endothelium; eyeball instilled 10 times
  N-cadherin immunostaining: Expression along the cell membrane
  Na+/K+-ATPase immunostaining: Expression along the cell membrane
  ZO-1 immunostaining: Expression along the cell membrane
  actin staining, form of the corneal endothelium: polygonal paving stones
Corneal endothelium; rabbit, in vivo
  Annexin V and PI staining (cell death): Neither staining with Annexin V nor PI was observed
